According to patent publication US20240408222A1, “COMPOUNDS, PHARMACEUTICAL COMPOSITIONS, AND METHODS FOR THE TREATMENT, PREVENTION, OR MANAGEMENT OF HYPERPRO[…]” (VINCERX PHARMA GMBH, priority 2021, published 2024):
Structures can show the parent of a compound that is named as a salt.

Key:
SUM149 [1] = experiment: Cytotoxicity in vitro (MTT) in presence/absence of elastase; type: cell-based; conditions: 72 h
Experimental: (§1) Cultivation of cells was performed according to standard procedures with the media recommended by the provider. The cells, in a total volume of 100 μL, were seeded in a 96-well plate with a white bottom (#3610). After a 24 h incubation period at 37° C. and […], the medium was exchanged by adding 90 μL fresh medium. The treatment started by adding the test compound in 10 μL of culture medium to the cells in triplicates. Concentrations ranging from 10^−5 M to 10^−13 M were chosen. Two identically treated sets of samples were prepared. One set was treated with the test compound alone, whereas to the second set the compound and 10 nM elastase was added followed by a 72 h incubation period at 37° C. and […]. The proliferation was detected using the MTT assay (ATCC). At the end of the incubation period the MTT reagent was added to all samples for 4 h. Lysis of the cells followed by addition of the detergent was done overnight. The formed dye was detected at 570 nm. The proliferation of untreated but otherwise identically handled cells was define as the 100% value.

SUM149 [2] = experiment: Cytotoxicity assay (Version 2, automated, AC50) with/without neutrophil elastase; type: cell-based; conditions: Version 2, activity concentration at −50%
Experimental: as §1
(§2) The cytotoxicity assay (Version 2) was performed as described above. Some changes were applied as the assays were performed in an automated fashion and the IC50 values determination was changed. Here the change in metabolic activity of the cells, in percent, was calculated by normalization of the measured values to the absorbance values of medium containing wells without cells (═−100%) and the absorbance of the DMSO-treated cells (═0%). AC50 values (activity concentration at −50%) were determined by means of a 4 parameter Hill-fit using GeneData Screener software.

NCI H292 [3] = experiment: Cytotoxicity in vitro (MTT) in presence/absence of elastase; type: cell-based, human; conditions: 72 h
Experimental: as §1

HT29 [4] = experiment: as above; type: cell-based, human; conditions: 72 h
Experimental: as §1

786-O [5] = experiment: as above; type: cell-based, human; conditions: 72 h
Experimental: as §1

NCI H292 [6] = experiment: Cytotoxicity assay (Version 2, automated, AC50) with/without neutrophil elastase; type: cell-based, human; conditions: Version 2, activity concentration at −50%
Experimental: as §1, §2

HT29 [7] = experiment: as above; type: cell-based, human; conditions: Version 2, activity concentration at −50%
Experimental: as §1, §2

786-O [8] = experiment: as above; type: cell-based, human; conditions: Version 2, activity concentration at −50%
Experimental: as §1, §2

[9] = SUM149, with (+) 10 nM neutrophil elastase
[10] = SUM149, without (−) neutrophil elastase
[11] = SUM149, with (+) neutrophil elastase
[12] = NCI H292, with (+) 10 nM neutrophil elastase
[13] = NCI H292, without (−) neutrophil elastase
[14] = HT29, with (+) 10 nM neutrophil elastase
[15] = HT29, without (−) neutrophil elastase
[16] = with (+) 10 nM neutrophil elastase
[17] = without (−) neutrophil elastase
[18] = NCI H292, with (+) neutrophil elastase
[19] = HT29, with (+) neutrophil elastase

Row | SMILES | IC50 (SUM149 [1]; [9]) | IC50 (SUM149 [1]; [10]) | AC50 (SUM149 [2]; [11]) | AC50 (SUM149 [2]; [10]) | IC50 (NCI H292 [3]; [12]) | IC50 (NCI H292 [3]; [13]) | IC50 (HT29 [4]; [14]) | IC50 (HT29 [4]; [15]) | IC50 (786-O [5]; [16]) | IC50 (786-O [5]; [17]) | AC50 (NCI H292 [6]; [18]) | AC50 (NCI H292 [6]; [13]) | AC50 (HT29 [7]; [19]) | AC50 (HT29 [7]; [15]) | AC50 (786-O [8]; with (+) neutrophil elastase) | AC50 (786-O [8]; [17])
1 | CCCNC(=O)Nc1cccc(S(=O)(=O)Nc2cccc([C@H](CC(=O)O)NC(=O)Nc3ccc(NC(=O)NCCOCCOCCOCCC(=O)N[C@@H](CC(=O)O)C(=O)N4CCC[C@H]4C(=O)N[C@H](C(=O)N=[S@@](C)(=O)Cc4cc5cc(c4)OCCCCOc4cc(F)ccc4-c4nc(ncc4F)N5)C(C)C)cc3)c2)c1 [Compound 14] | ≤ 0.001 µM | > 0.1 µM | 0.011 to 0.1 µM | 0.1 to 1 µM | 0.0011 to 0.01 µM | > 0.1 µM | ≤ 0.001 µM | > 0.1 µM | ≤ 0.001 µM | > 0.1 µM | 0.011 to 0.1 µM | 0.1 to 1 µM | 0.011 to 0.1 µM | > 1 µM | 0.011 to 0.1 µM | > 1 µM
2 | CCCNC(=O)Nc1cccc(S(=O)(=O)Nc2cccc([C@@H](CC(=O)O)NC(=O)Nc3ccc(NC(=O)NCCN(C)CCN(C)CCN(C)CC(=O)N[C@@H](CC(N)=O)C(=O)N4CCC[C@H]4C(=O)N[C@H](C(=O)N=[S@@](C)(=O)Cc4cc5cc(c4)OCCCCCNc4cc(ccc4F)-c4nc(ncc4F)N5)C(C)C)cc3)c2)c1 (relative stereo) [Compound 15] | ≤ 0.001 µM | 0.011 to 0.1 µM | 0.1 to 1 µM | 0.1 to 1 µM | ≤ 0.001 µM | 0.011 to 0.1 µM | ≤ 0.001 µM | > 0.1 µM | ≤ 0.001 µM | > 0.1 µM | 0.011 to 0.1 µM | 0.1 to 1 µM | 0.1 to 1 µM | 0.1 to 1 µM | 0.1 to 1 µM | 0.1 to 1 µM
3 | CCCNC(=O)Nc1cccc(S(=O)(=O)Nc2cccc([C@H](CC(=O)O)NC(=O)Nc3ccc(NC(=O)NCCN(C)CCN(C)CCN(C)CC(=O)N[C@@H](CC(N)=O)C(=O)N4CCC[C@H]4C(=O)N[C@H](C(=O)N=[S@@](C)(=O)Cc4cc5cc(c4)OCCCCCNc4cc(ccc4F)-c4nc(ncc4F)N5)C(C)C)cc3)c2)c1 (relative stereo) [Compound 16] | 0.0011 to 0.01 µM | 0.011 to 0.1 µM | 0.011 to 0.1 µM | > 1 µM | ≤ 0.001 µM | 0.011 to 0.1 µM | ≤ 0.001 µM | > 0.1 µM | 0.0011 to 0.01 µM | > 0.1 µM | 0.011 to 0.1 µM | 0.1 to 1 µM | ≤ 0.01 µM | > 1 µM | 0.011 to 0.1 µM | > 1 µM
4 | CCCNC(=O)Nc1cccc(S(=O)(=O)Nc2cccc([C@@H](CC(=O)O)NC(=O)Nc3ccc(NC(=O)NCCN(C)CCN(C)CCN(C)CC(=O)N[C@@H](CC(N)=O)C(=O)N4CCC[C@H]4C(=O)N[C@H](C(=O)N=[S@](C)(=O)Cc4cc5cc(c4)OCCCCCNc4cc(ccc4F)-c4nc(ncc4F)N5)C(C)C)cc3)c2)c1 (relative stereo) [Compound 17] | 0.0011 to 0.01 µM | 0.011 to 0.1 µM | ≤ 0.01 µM | 0.1 to 1 µM | ≤ 0.001 µM | 0.011 to 0.1 µM | ≤ 0.001 µM | 0.011 to 0.1 µM | 0.0011 to 0.01 µM | > 0.1 µM | ≤ 0.01 µM | 0.1 to 1 µM | ≤ 0.01 µM | > 1 µM | ≤ 0.01 µM | 0.1 to 1 µM
5 | CCCNC(=O)Nc1cccc(S(=O)(=O)Nc2cccc([C@@H](CC(=O)O)NC(=O)Nc3ccc(NC(=O)NCCOCCOCCOCCC(=O)NCCCC[C@H](NC(=O)CCOCCOCCOCCNC(=O)Nc4ccc(NC(=O)N[C@H](CC(=O)O)c5cccc(NS(=O)(=O)c6cccc(NC(=O)NCCC)c6)c5)cc4)C(=O)NCCN(C)CCN(C)CCN(C)CC(=O)N[C@@H](CC(N)=O)C(=O)N4CCC[C@H]4C(=O)N[C@H](C(=O)N=[S@@](C)(=O)Cc4cc5cc(c4)O[C@@H](C)CCOc4cc(F)ccc4-c4nc(ncc4F)N5)C(C)C)cc3)c2)c1 (relative stereo) [Compound 28] | – | – | ≤ 0.01 µM | 0.1 to 1 µM | – | – | – | – | – | – | ≤ 0.01 µM | 0.1 to 1 µM | ≤ 0.01 µM | 0.1 to 1 µM | ≤ 0.01 µM | > 1 µM
6 | CCCNC(=O)Nc1cccc(S(=O)(=O)Nc2cccc([C@@H](CC(=O)O)NC(=O)Nc3ccc(NC(=O)NCCOCCOCCOCCC(=O)NCCCC[C@H](NC(=O)CCOCCOCCOCCNC(=O)Nc4ccc(NC(=O)N[C@H](CC(=O)O)c5cccc(NS(=O)(=O)c6cccc(NC(=O)NCCC)c6)c5)cc4)C(=O)NCCOCCOCCOCCC(=O)N[C@@H](CC(=O)O)C(=O)N4CCC[C@H]4C(=O)N[C@H](C(=O)N=[S@](C)(=O)Cc4cc5cc(c4)O[C@H](C)CCOc4cc(F)ccc4-c4nc(ncc4F)N5)C(C)C)cc3)c2)c1 (relative stereo) [Compound 31] | – | – | ≤ 0.01 µM | 0.1 to 1 µM | – | – | – | – | – | – | ≤ 0.01 µM | 0.1 to 1 µM | ≤ 0.01 µM | > 1 µM | ≤ 0.01 µM | > 1 µM
7 | CCCNC(=O)Nc1cccc(S(=O)(=O)Nc2cccc([C@@H](CC(=O)O)NC(=O)Nc3ccc(NC(=O)N(C)CCN(C)CCN(C)CC(=O)N[C@@H](CC(N)=O)C(=O)N4CCC[C@H]4C(=O)N[C@H](C(=O)N=S(C)(=O)Cc4cc5cc(c4)OC(C)CCOc4cc(F)ccc4-c4nc(ncc4F)N5)C(C)C)cc3)c2)c1 (relative stereo) [Compound 6] | ≤ 0.001 µM | 0.011 to 0.1 µM | ≤ 0.01 µM | ≤ 0.01 µM | ≤ 0.001 µM | > 0.1 µM | ≤ 0.001 µM | > 0.1 µM | – | – | ≤ 0.01 µM | 0.1 to 1 µM | ≤ 0.01 µM | ≤ 0.01 µM | ≤ 0.01 µM | ≤ 0.01 µM
8 | CCCNC(=O)Nc1cccc(S(=O)(=O)Nc2cccc([C@@H](CC(=O)O)NC(=O)Nc3ccc(NC(=O)NCCOCCOCCOCCC(=O)N[C@@H](CC(=O)OCCC[N+](C)(C)C)C(=O)N4CCC[C@H]4C(=O)N[C@H](C(=O)N=S(C)(=O)Cc4cc5cc(c4)OCCCCOc4cc(F)ccc4-c4nc(ncc4F)N5)C(C)C)cc3)c2)c1 (single isomer, unassigned) [Compound 20, trifluoroacetate] | – | – | 0.011 to 0.1 µM | 0.1 to 1 µM | – | – | – | – | – | – | 0.011 to 0.1 µM | > 1 µM | 0.011 to 0.1 µM | > 1 µM | 0.011 to 0.1 µM | > 1 µM
9 | CCCNC(=O)Nc1cccc(S(=O)(=O)Nc2cccc([C@H](CC(=O)O)NC(=O)Nc3ccc(NC(=O)NCCOCCOCCOCCC(=O)NCCCC[C@H](NC(=O)CCOCCOCCOCCNC(=O)Nc4ccc(NC(=O)N[C@@H](CC(=O)O)c5cccc(NS(=O)(=O)c6cccc(NC(=O)NCCC)c6)c5)cc4)C(=O)NCCN(C)CCN(C)CCN(C)CC(=O)N[C@@H](CC(N)=O)C(=O)N4CCC[C@H]4C(=O)N[C@H](C(=O)N=[S@@](C)(=O)Cc4cc5cc(c4)O[C@@H](C)CCOc4cc(F)ccc4-c4nc(ncc4F)N5)C(C)C)cc3)c2)c1 (relative stereo) [Compound 29] | – | – | ≤ 0.01 µM | 0.1 to 1 µM | – | – | – | – | – | – | ≤ 0.01 µM | 0.1 to 1 µM | ≤ 0.01 µM | 0.1 to 1 µM | ≤ 0.01 µM | > 1 µM
10 | CCCNC(=O)Nc1cccc(S(=O)(=O)Nc2cccc([C@@H](CC(=O)O)NC(=O)Nc3ccc(NC(=O)NCCN(C)CCN(C)CCN(C)CC(=O)N[C@@H](CC(N)=O)C(=O)N4CCC[C@H]4C(=O)N[C@H](C(=O)N=S(C)(=O)Cc4cc5nc(c4)OCCCOc4cc(F)ccc4-c4cc(ncc4F)N5)C(C)C)cc3)c2)c1 (mixture of isomers) [Compound 22] | – | – | ≤ 0.01 µM | 0.1 to 1 µM | – | – | – | – | – | – | ≤ 0.01 µM | 0.1 to 1 µM | ≤ 0.01 µM | 0.1 to 1 µM | ≤ 0.01 µM | 0.1 to 1 µM
